Data published in US20250120963A1, “METHODS AND COMPOSITIONS FOR THE TREATMENT OF THROMBOCYTOPENIA” (THE CHILDREN'S MEDICAL CENTER CORPORATION, priority 2023, published 2025).

Legend:
mice [1] = test system: mice
Protocol: Mice were given Niraparib (25 mg/kg, intraperitoneal) or vehicle control for 11 days. FIG. 5A) Platelet counts and immature platelet fraction were measured on a SYSMEX™ hematology analyzer. Line graph: Black circles=Vehicle, gray squares=Niraparib. Bar charts: black=Vehicle, gray=Niraparib. FIG. 5B) MKs and MK-biased HSC counts. Dark gray=DMSO (vehicle), light gray=Niraparib. FIG. 5C) expression of γH2AX. Left bar=control, right bar=Niraparib, and FIG. 5D) MK ploidy was determined by flow cytometry (see FIGS. 9A-9C). n=4-5 mice per group. Gray=Niraparib, black=Vehicle.
Mice were treated with a subtherapeutic dosage of the PARP inhibitor Niraparib (25 mg/kg, intraperitoneal) or saline control for 11 days. The dosing schedule was as follows: 5 consecutive days of Niraparib treatment followed by 2 days of drug holiday (no injection), then 4 more consecutive days of Niraparib treatment. Mice were sacrificed on day 11. Platelet counts were taken on days 0 (pre-treatment), 2, 7, 9, and 11. Cohorts of mice were sacrificed on days 3 and 11 for quantification of bone MK and progenitor populations. […] To.
Niraparib treatment were measured.

[2] = test system: MKs in calvaria bone marrow of vWF-GFP reporter mice; settings: 25 mg/kg, 7 days, vs DMSO
Protocol: (§1) While MK ploidy is not directly causative of platelet production, higher ploidy MKs are associated with increased platelet production and ploidy status is indicative of more terminal MK maturation. To look further at live MKs, 2-photon intravital microscopy (2PIVM) was performed in the calvaria of vWF-GFP reporter mice (MKs and platelets are GFP+) treated with 25 mg/kg Niraparib or vehicle control DMSO for 7 days. Mice were anesthetized and a window in the calvaria was made to view the exposed bone marrow.

platelets = platelets drawn on D11, 25 mg/kg; stimulated with ADP, TRAP or CRP; listed as niraparib
Protocol: Platelets were drawn from mice at sacrifice on D11 (see FIG. 6), stimulated with agonists as indicated, and the MFI of activated αIIbβ3 measured by flow cytometry. Black markers=saline, gray markers=Niraparib, 25 mg/kg.
Platelets were drawn from mice at sacrifice on D11, stimulated with agonists as indicated, and the MFI of activated αIIbβ3 measured by flow cytometry. Black=saline, gray=Niraparib (25 mg/kg).
as §1
Platelets were drawn from mice at sacrifice on D11, stimulated with agonists as indicated, and the MFI of activated αIIbβ3 measured by flow cytometry.

[3] = test system: lineage depleted murine bone marrow; assay: In vitro megakaryocyte differentiation: lineage depleted bone marrow cultured with TPO for 4 days with PARPi (VWF-GFP signal); format: cell-based; settings: for megakaryocyte differentiation / megakaryopoiesis in vitro: TPO, 4 days, PARPi vs vehicle
Protocol: Lineage depleted bone marrow was cultured with TPO for 4 days in the presence of PARPi or vehicle controls. FIG. 14A) representative images of VWF-GFP signal. FIG. 14B) Mean normalized area of GFP signal (n=3). Error bars±SEM.Circles=Olaparib, squares=Niraparib, triangles=Rucaparib.
Lineage depleted bone marrow was cultured with TPO for 4 days in the presence of PARPi or vehicle controls (FIG. 14A-14B).
Lineage depleted murine bone marrow was cultured with TPO for 4 days in the presence of PARPi or vehicle controls (FIG. 14A-14B).

[4] = 0.03 μM vs vehicle
mice [5] = settings: 50 mg/kg daily i.p.; Niraparib 10 days, Olaparib 3 days
Protocol: Mice were treated with 50 mg/kg Niraparib or Olaparib daily (i.p.) for 10 or 3 days, respectively, and platelet counts measured by SYSMEX™.
FIG. 21A) Platelet count versus time. FIG. 21B) RBC count versus time. FIG. 21C) WBC count versus time.
8,9 Mice were treated with 50 mg/kg of Niraparib and Olaparib […].

C57B1/6 mice = assay: Olaparib 50 mg/kg i.p. 5 consecutive days each week in C57B1/6 mice, 2-week and 4-week experiments; format: in vivo
Protocol: C57B1/6 mice dosed with 50 mg/kg Olaparib intraperitoneally for 5 days consecutive days each week. Dark gray=vehicle, light gray=Olaparib.
Olaparib treatment increases platelet count and alters megakaryocyte ploidy in mice. C57B1/6 mice were dosed with 50 mg/kg Olaparib intraperitoneally for 5 days consecutive days each week.

[6] = test system: PARylation in megakaryocytes; assay: PARylation western blot in megakaryocytes subjected to hydrogen peroxide with or without Olaparib; format: cell-based, murine; settings: 10 mM H2O2; Olaparib 30 μM or 3 μM
Protocol: Lineage depleted murine bone marrow was cultured with TPO for 4 days. Gradient-isolated megakaryocytes subjected to 10 mM of hydrogen peroxide (H2O2) in the presence or absence of Olaparib (30 μM or 3 μM). Cells were subsequently lysed in RIPA buffer containing protease inhibitor cocktail. A western blot to detect PARylation was performed. Equal loading was confirmed using an anti-GAPDH antibody. Impage shown is a representative of three experiments.
Lineage depleted murine bone marrow was cultured with TPO for 4 days. Gradient-isolated megakaryocytes were subjected to 10 mM of hydrogen peroxide (H2O2) in the presence or absence of olaparib (30 μM or 3 μM). Cells were subsequently lysed in RIPA buffer containing protease inhibitor cocktail. A western blot to detect PARylation was performed (FIG. 18). Equal loading was confirmed using an anti-GAPDH antibody.

patients = settings: ITP patients; cited from earlier work

Q: What does the source list for `NC(=O)c1cccc2cn(-c3ccc([C@@H]4CCCNC4)cc3)nc12` [Niraparib, 2-{4-[(3S)-Piperidin-3-yl]phenyl}-2H-indazole-7-carboxamide]?
A: number of MK-committed HSCs positive for γH2AX (mice [1]; 25 mg/kg i.p.): significantly increased; γH2AX-positive MKPs (mice [1]; 25 mg/kg i.p.): trend to more; 2N MKs (mice [1]; 25 mg/kg i.p., 11 days): almost no 2N MKs; number of 32N MKs (mice [1]; 25 mg/kg i.p., 11 days): large increase; MK number / MK counts (mice [1]; 25 mg/kg i.p., bone marrow, flow cytometry, listed as niraparib): increases; MK-committed HSCs (CD41+LT-HSCs) counts (mice [1]; 25 mg/kg i.p., days preceding the increase in platelet counts): significant increase; immature platelet fraction (mice [1]; 25 mg/kg i.p., from day 7, vs saline): significant increase; platelets, percent of normal levels (mice [1]; Niraparib treated mice): > 150 % of normal levels; MKs in day 3 HSPC/myeloid panel (mice [1]; day 3, committed progenitors and classical hematopoiesis pathways): Significant increase in MKs; day 11 HSPC/myeloid panel: HSC status (mice [1]; day 11): HSC exhaustion; megakaryopoiesis (mice [1]; lower doses of niraparib): increase in megakaryopoiesis; time to significant increase in mouse platelet count (mice [1]; lower doses of niraparib, from initial administration): ≤ 7 days; DNA damage accumulation in megakaryocytes, γH2AX immunofluorescence on long bones (mice [1]; niraparib group): Increased DNA damage accumulation; MK number in bone marrow by 2-photon intravital microscopy [2]: increased MK number; platelet function / activation (platelets): does not affect platelet function; megakaryocyte differentiation / megakaryopoiesis in vitro [3]: reduce megakaryocyte differentiation; megakaryocyte maturation in vitro at higher doses ([3]; lineage depleted bone marrow cells from WT mice, higher doses): decreased maturation; megakaryocyte maturation in vitro at lower doses ([3]; lineage depleted bone marrow cells from WT mice, lower doses): increased megakaryocyte maturation; ploidy in vitro [4]: increases ploidy

Q: Which “platelet counts at 50 mg/kg” value (mice [5]) does the source give for `O=C(c1cc(Cc2n[nH]c(=O)c3ccccc23)ccc1F)N1CCN(C(=O)C2CC2)CC1` [Olaparib, 4-[(3-[(4-cyclopropylcarbonyl)piperazin-4-yl]carbonyl)-4-fluorophenyl]methyl (2H) phthalazin-1-one] here?
A: The value was “severe thrombocytopenia”.

Q: What about the “platelet counts after day 6” value (C57B1/6 mice; 2-week and 4-week experiments) of the same compound?
A: The value was “returned to approximately baseline”.

Q: And the “megakaryocyte ploidy shift after 2-weeks” value (C57B1/6 mice; 2 weeks)?
A: The value was “fewer 8N and more 32N cells”.

Q: What about the “number of megakaryocytes (CD41+CD42+ flow cytometry of bone marrow) at 2-weeks” value (C57B1/6 mice; 2 weeks) of the same compound?
A: The value was “trend to fewer megakaryocytes”.

Q: And the “megakaryocyte ploidy shift after 4-weeks” value (C57B1/6 mice; 4 weeks)?
A: The value was “more 8N and fewer 16N cells”.

Q: And the “number of megakaryocytes (CD41+CD42+ flow cytometry of bone marrow) at 4-weeks” value (C57B1/6 mice; 4 weeks)?
A: The value was “trend to fewer megakaryocytes”.

Q: And the platelet count (C57B1/6 mice; increase found at day 6, 2-week and 4-week experiments)?
A: Its platelet count is “surprising increase in platelet count”.

Q: What about the “megakaryocyte differentiation / megakaryopoiesis in vitro” value [3] of the same compound?
A: Its value is “reduce megakaryocyte differentiation”.

Q: And the “megakaryocyte PARylation” value [6]?
A: Its value is “reverses PARylation pattern”.

Q: Which “time for peak results” value (patients) does the source give for “Rituximab: treatment for ITP patients, which can take 4-6 weeks for peak results” here?
A: Its value is 4-6 weeks.
